Experimental findings from patent US11730720B2, “ALK5 inhibitors” (THERAVANCE BIOPHARMA R&D IP, LLC, priority 2018, dated 2023) are described below.

In test [1] the test system is TGF-β-stimulated SMAD3 phosphorylation in BEAS-2B cells. Description: Cellular ALK5 potency assay, inhibition of TGF-β stimulated pSMAD3 formation in BEAS-2B cells. In kind it is cell-based. To be noted: Homo sapiens, inhibition of TGF-β (10 ng/mL) stimulated pSMAD3 formation, 1 hour compound incubation, read-out: BEAS2B pIC50 (converted). The protocol: Example 255: Cellular ALK5 Potency Assay to Measure pIC50, Inhibition of TGF-β Stimulated pSMAD3 Formation in BEAS-2B Cells
The potency of compounds of the present disclosure for inhibition of TGF-β-stimulated SMAD3 phosphorylation was measured in BEAS-2B cells, a human lung epithelial cell line. TGF-β signals through activin receptor-like kinase 5 (ALK5) immediately prior to SMAD3 phosphorylation.
BEAS-2B cells were grown using 50% DMEM (Life Technologies) and 50% F-12 (Life Technologies) media, supplemented with 10% Fetal Bovine Serum (ATCC), 25 mM HEPES (Life Technologies), and 1×Pen-Strep (Life Technologies). Cells were cultured in a humidified incubator set at 37° C., 5% CO2, and trypsonized using 0.25% Trypsin with 0.5% polyvinylpyrrolidone (PVP).
For the assay, BEAS-2B cells were seeded at 7,500 cells/well (25 μL/well) in a 384-well plate and cultured overnight. Before dosing, growth media was aspirated and the wells were rinsed with HBSS Buffer (HBSS with Calcium and Magnesium, Life Technologies) supplemented with 25 mM HEPES (Life Technologies) and 1% Bovine Serum Albumin (Roche). Compounds were serially diluted in DMSO, then further diluted with supplemented HBSS Buffer (50 μL/well) to create a compound plate 3× of the final assay concentration, at 0.3% DMSO. The diluted compounds were then added to the cells (8 μL/well) and incubated at 37° C., 5% CO2 for 1 hour. After the compound incubation, TGF-β (R&D Systems) reconstituted in supplemented HBSS Buffer was added to the cells ([…], final concentration 10 ng/mL) and incubated for a further 30 minutes, after which the cells were immediately lysed with AlphaLISA lysis buffer (PerkinElmer). AlphaLISA Acceptor and Detector beads (PerkinElmer) were added 2 hours apart, then incubated overnight to be read the next day. The potency of the compound was determined through analysis of dose-dependent quantified changes in pSMAD3 signal from baseline (non-compound treated TGF-β stimulated cells). Data are expressed as pIC50 (negative decadic logarithm IC50) values.

Test [2] has as its target T1, recombinant human ALK5 (TGF-βR1) protein (Homo sapiens, UniProt P36897).
T1 construct: purchased Life Technologies PR9075A
T1 sequence (P36897 34-503): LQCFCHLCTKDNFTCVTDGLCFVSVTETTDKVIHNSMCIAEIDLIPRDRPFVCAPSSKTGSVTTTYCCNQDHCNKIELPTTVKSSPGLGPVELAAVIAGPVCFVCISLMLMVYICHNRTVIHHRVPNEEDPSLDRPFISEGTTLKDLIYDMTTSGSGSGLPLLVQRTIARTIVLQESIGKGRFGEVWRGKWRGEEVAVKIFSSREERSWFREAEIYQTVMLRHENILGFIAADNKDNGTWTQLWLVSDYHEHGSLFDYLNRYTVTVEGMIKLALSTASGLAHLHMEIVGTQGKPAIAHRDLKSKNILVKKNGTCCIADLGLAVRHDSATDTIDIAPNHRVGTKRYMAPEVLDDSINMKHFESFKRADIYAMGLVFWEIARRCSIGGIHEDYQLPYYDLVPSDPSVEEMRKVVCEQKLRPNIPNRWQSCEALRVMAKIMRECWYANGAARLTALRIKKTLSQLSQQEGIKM
Description: Biochemical ALK5 (TGF-βR1) assay to measure pKi (LANCE Ultra ULight kinase assay). The conditions noted are these: apparent pKi, converted from pIC50 using the Cheng-Prusoff equation. Here is the method:
Example 254: Biochemical ALK5 (TGF-βR1) Assay to Measure pKi
The assays were performed in a 384-well plate (24 columns×16 wells/rows). An Echo® 550 Liquid Handler (Labcyte) was used to prepare various intermediate concentrations of compounds of the present disclosure in 100% DMSO. From the intermediate concentrations, a range of concentrations (from 10 μM to 25 pM corresponding to volumes up to 105 nL) were prepared and ejected into a final assay plate to be used to create individual dose response curves for each of the subject compounds. To a separate column within the assay plate, 105 nL of DMSO in each well was used to establish a maximum assay signal. Additionally, 105 nL of 100 μM SD-208, a selective TGF-βR1 inhibitor (Catalog #S7624, Selleck Chemicals), was used in another column of wells to establish a minimal assay signal.
With a multidrop dispenser, 8 μL of enzyme mixture (1.25× final) was added to each well. The enzyme mixture consisted of 250 pM ALK5 enzyme and 62.5 nM peptide substrate (LANCE® (lanthanide chelate excite) Ultra ULight™-DNA Topoisomerase 2-alpha (Thr1342)) prepared in assay buffer (50 mM HEPES, 10 mM MgCl2, 1 mM EGTA, 0.01% Tween-20, pH 7.5 at room temperature) with 2 mM DTT added prior to use. The plate was then sealed with an adhesive seal and allowed to equilibrate for 60 minutes at room temperature.
Next, 2 μL of 125 μM ATP (5× final, 125 μM ATP prepared in assay buffer with 2 mM DTT) was added to the incubated mixtures, covered with a MicroClime® Environmental Lid (Product No. LLS-0310, Labcyte) and immediately transferred to 37° C. The reactions were allowed to proceed at 37° C. for 60 minutes before terminating with the addition of 10 μL of detection antibody (LANCE® (lanthanide chelate excite) Ultra Europium-anti-phospo-DNA Topoisomerase 2-alpha (Thr1342)) in detection mixture (12 mM EDTA, 4 nM detection antibody prepared in detection buffer (50 mM Tris-HCl, 150 mM NaCl, 0.5% BSA (Fraction V), pH 7.0)) at room temperature. The plate was then read on a Perkin Elmer EnVision Plate Reader using europium specific reader settings with excitation and emission wavelengths set to 320 or 340 nm and 665 nm, respectively.
For dose-response analyses, percent inhibition versus compound concentrations were plotted, and pIC50 values were determined from a 4-parameter robust fit model with GraphPad Prism V5 Software (GraphPad Software, Inc., La Jolla, Calif.). This model obtains pIC50 values by fitting the sigmodial dose-response (variable slope) equation to the data. Results were expressed as pIC50 (negative logarithm of IC50) and subsequently converted to pKi (negative logarithm of dissociate constant, K) using the Cheng-Prusoff equation.
The higher the value of pKi (lower value of Ki), the greater the inhibition of ALK5 activity.

Where only a bound is given, the exact number is not on record here.

For `Fc1cc(F)c(-c2n[nH]cc2-c2ccc3ncc(-c4cn[nH]c4)cc3n2)cc1Cl` [Compound 6-6, 2-[3-(5-chloro-2,4-difluoro-phenyl)-1H-pyrazol-4-yl]-7-(1H-pyrazol-4-yl)-1,5-naphthyridine], in test [1], the IC50 was ≤ 20 nM. Besides, the Ki in test [2] is 0.0398 to 0.316 nM.

Regarding `COCc1cccc(-c2n[nH]cc2-c2ccc3ncc(-c4cnn(CCN)c4)cc3n2)c1` [Compound 14-13, 2-[4-[6-[3-[3-(methoxymethyl)phenyl]-1H-pyrazol-4-yl]-1,5-naphthyridin-3-yl]pyrazol-1-yl]ethanamine], in test [1], the IC50 is 25.1 to 158 nM. In addition, the Ki in test [2] was 0.0398 to 0.316 nM.

As to `Fc1ccc(Cl)cc1-c1[nH]cnc1-c1ccc2ncc(N3CCCNCC3)cc2n1` [Compound 2-7, 2-[5-(5-chloro-2-fluoro-phenyl)-1H-imidazol-4-yl]-7-(1,4-diazepan-1-yl)-1,5-naphthyridine], in test [1], the IC50 is 25.1 to 158 nM. Besides, the Ki in test [2] is 0.398 to 3.16 nM.

As for `COC(=O)c1cnc2ccc(-c3[nH]nnc3-c3ccccc3F)nc2c1` [Compound 12-1, methyl 6-(4-(2-fluorophenyl)-1H-1,2,3-triazol-5-yl)-1,5-naphthyridine-3-carboxylate], the IC50 in test [1] is 200 to 1260 nM. The Ki in test [2] was 3.98 to 31.6 nM.

Turning to `CC(C)N1CCN(CCNc2cnc3ccc(-c4nn[nH]c4-c4cc(Cl)ccc4F)cc3c2)CC1` [Compound 18-3, 6-(5-(5-chloro-2-fluorophenyl)-1H-1,2,3-triazol-4-yl)-N-(2-(4-isopropylpiperazin-1-yl)ethyl)quinolin-3-amine], the IC50 in test [1] is 25.1 to 158 nM. The Ki in test [2] was 0.398 to 3.16 nM.

For the compound `CNCCn1cc(-c2cnc3ccc(-c4c(-c5cc(Cl)c(F)cc5F)[nH]c5cccnc45)nc3c2)cn1` [Compound 26-1, 2-[4-[6-[2-(5-chloro-2,4-difluoro-phenyl)-1H-pyrrolo[3,2-b]pyridin-3-yl]-1,5-naphthyridin-3-yl]pyrazol-1-yl]-N-methyl-ethanamine], the IC50 in test [1] is 200 to 1260 nM. Also, the Ki in test [2] is 0.0398 to 0.316 nM.

With `CN(CC1CNC1)c1cnc2ccc(-c3c[nH]nc3-c3cc(Cl)ccc3F)nc2c1` [Compound 1-41, N-(azetidin-3-ylmethyl)-6-[3-(5-chloro-2-fluoro-phenyl)-1H-pyrazol-4-yl]-N-methyl-1,5-naphthyridin-3-amine], in test [1], the IC50 is 25.1 to 158 nM. The Ki in test [2] is 0.0398 to 0.316 nM.

For the compound `Fc1ccc(Cl)cc1-c1[nH]cnc1-c1ccc2ncc(NC[C@@H]3CCCN3)cc2n1` [Compound 2-30, 6-[5-(5-chloro-2-fluoro-phenyl)-1H-imidazol-4-yl]-N-[[(2S)-pyrrolidin-2-yl]methyl]-1,5-naphthyridin-3-amine], the IC50 in test [1] was 200 to 1260 nM. The Ki in test [2] was 0.398 to 3.16 nM.

`Fc1cc(F)c(-c2n[nH]cc2-c2ccc3ncc(-c4cc5n(n4)CCNC5)cc3n2)cc1Cl` [Compound 6-56, 2-[3-(5-chloro-2,4-difluoro-phenyl)-1H-pyrazol-4-yl]-7-(4,5,6,7-tetrahydropyrazolo[1,5-a]pyrazin-2-yl)-1,5-naphthyridine]: in test [1], the IC50 was 25.1 to 158 nM. The Ki in test [2] was 0.0398 to 0.316 nM.

`CNCCn1cc(-c2cnc3ccc(-c4c(-c5cc(Cl)ccc5F)[nH]c5cccnc45)cc3c2)cn1` [Compound 21-1, 2-(4-(6-(2-(5-chloro-2-fluorophenyl)-1H-pyrrolo[3,2-b]pyridin-3-yl)quinolin-3-yl)-1H-pyrazol-1-yl)-N-methylethan-1-amine]: the IC50 in test [1] was 200 to 1260 nM. Moreover, the Ki in test [2] is 0.398 to 3.16 nM.

As to `Fc1cc(F)c(-c2n[nH]cc2-c2ccc3ncc(-c4cn(Cc5c[nH]cn5)nn4)cc3n2)cc1Cl` [Compound 6-62, 7-(1-((1H-imidazol-4-yl)methyl)-1H-1,2,3-triazol-4-yl)-2-(3-(5-chloro-2,4-difluorophenyl)-1H-pyrazol-4-yl)-1,5-naphthyridine], the IC50 in test [1] was 25.1 to 158 nM. For the same compound, the Ki in test [2] was 0.0398 to 0.316 nM.

As to `O=C(NCCN1CCCC1)[C@H]1CN(c2cnc3ccc(-c4c[nH]nc4-c4cc(Cl)ccc4F)nc3c2)CCN1` [Compound 1-132, (2R)-4-[6-[3-(5-chloro-2-fluoro-phenyl)-1H-pyrazol-4-yl]-1,5-naphthyridin-3-yl]-N-(2-pyrrolidin-1-ylethyl)piperazine-2-carboxamide], in test [1], the IC50 is 200 to 1260 nM. For the same compound, the Ki in test [2] is 0.0398 to 0.316 nM.

Consider `Fc1ccc(Cl)cc1-c1[nH]cnc1-c1ccc2ncc(NCCN3CCCC3)cc2n1` [Compound 2-26, 6-[5-(5-chloro-2-fluoro-phenyl)-1H-imidazol-4-yl]-N-(2-pyrrolidin-1-ylethyl)-1,5-naphthyridin-3-amine], for which, in test [1], the IC50 is ≤ 20 nM. In addition, the Ki in test [2] was 0.0398 to 0.316 nM.

For the compound `Fc1ccc(Cl)cc1-c1n[nH]cc1-c1ccc2ncc(-c3ncc4n3CCNC4)cc2n1` [Compound 1-114, 2-[3-(5-chloro-2-fluoro-phenyl)-1H-pyrazol-4-yl]-7-(5,6,7,8-tetrahydroimidazo[1,5-a]pyrazin-3-yl)-1,5-naphthyridine], the IC50 in test [1] is 25.1 to 158 nM. Further, the Ki in test [2] is 0.0398 to 0.316 nM.

Take `CC(C)(C)N1CCN(CCNc2cnc3ccc(-c4c[nH]nc4-c4cc(Cl)c(F)cc4F)nc3c2)CC1` [Compound 6-13, N-(2-(4-(tert-butyl)piperazin-1-yl)ethyl)-6-(3-(5-chloro-2,4-difluorophenyl)-1H-pyrazol-4-yl)-1,5-naphthyridin-3-amine]: the IC50 in test [1] was 25.1 to 158 nM. For the same compound, the Ki in test [2] is 0.0398 to 0.316 nM.

For the compound `Fc1ccc(-c2n[nH]cc2-c2ccc3ncc(C4=CCNC4)cc3n2)cc1F` [Compound 8-20, 2-[3-(3,4-difluorophenyl)-1H-pyrazol-4-yl]-7-(2,5-dihydro-1H-pyrrol-3-yl)-1,5-naphthyridine], in test [1], the IC50 was 25.1 to 158 nM. Further, the Ki in test [2] was 0.398 to 3.16 nM.
